The values that follow are results of earlier work, collected in patent US9457321B2, “Furanone containing polymer compound with bacteria-adhesion properties” (Stellenbosch University, priority 2012, dated 2016).

For this data set, the system named is P. aeruginosa, S. aureus, E. coli and Enterococci.

In the case of `CC1=C(O)C(=O)C(C)O1` (stereo not shown) [DMHF, 2,5-dimethyl-4-hydroxy-3(2H)-furanone], the antimicrobial efficacy entry is on record as “exceptional antimicrobial efficacy”.
